Test results reported in publication PMC8385015, “Tumour-on-chip microfluidic platform for assessment of drug pharmacokinetics and treatment response” (Communications Biology, 2021).
Where “and” joins values, the source holds several entries; their conditions need not be identical. Equal entries are not always repeated.

Tests used:
SW620 spheroids = assay: SW620 spheroid viability (CellTiterGlo), static plate format; type: cell-based; details: 6 days
Description: In microfluidic Ibidi chip, tumour spheroids were exposed to eight different concentrations in a gradient fashion mimicking the in vivo pharmacokinetic profile and treatment schedule for both drugs. c Spheroids were imaged in situ (plate/chip) at the end of the treatment and their volumes calculated from average radius deducted from min/max Feret. d Spheroid viability was measured at the end of the treatment by CellTiterGlo assay (d). N = 6 per condition from two independent experiments. Box-plots show median (centre line); box limits are 25th to 75th percentile; whiskers represent min and max values. Statistical analysis was performed using 1-way ANOVA.
From the same experimental setup, we explored SW620 spheroid viability at 6 days for static and microfluidic setup (Fig. 2d).
Compounds were dispensed in each well using an automated HP D300 digital dispenser (Tecan, UK).
Spheroid viability assessment used a metabolic method (CellTiterGlo 3D, G9681, Promega) by measuring luminescence units expressed by individually recovered spheroids. […] CellTiterGlo vial was allowed to thaw (1 h, room temperature) and 25 µL reagent were added to each spheroid well. […] Luminescence levels were measured using a SpectraMax i3X (Molecular Devices, USA).

γH2AX = γH2AX immunofluorescence in SW620 spheroids, microfluidic chip; type: cell-based; details: SN38 monotherapy, day 7
Source text: SN38 is a TOP1 inhibitor that that prevents relegation of the DNA strand by binding to TOP1–DNA complex and causes DNA double strand breaks (DSBs). Those DNA DSB lesions trigger activation of the ATM kinase for effective repair. Inhibition of ATM and consequent accumulation of unrepaired breaks leading to increased cell death provides the rationale for developing this combination for cancer treatment. […] Here, we tested whether different schedules lead to different activation of pharmacodynamic markers that are associated with DNA DSB damage, apoptosis and cell proliferation. The γ-H2AX associated foci accumulate in cells exposed to DBS inducing agents[18],[19]. These foci can be detected by immunostaining to determine their, size and morphology. However, spheroid imaging using a 20x objective on a CV7000 confocal microscope cannot accurately explore foci morphology, so we introduced customised ImageJ macros (described in “Methods” section, Supplementary Fig. 2 and Supplementary Method 1) to quantitate positive cells within a spheroid. The same method was applied to quantitate CC3-positive (apoptotic) cells, while normalisation by spheroid area was not required for Ki67, as this biomarker is present in all proliferating cells. […]
Supplementary Figure 2. Fluorescence image processing, per biomarker, using Fiji ImageJ custom-made macros […]

[1] = In vivo PK profile determination in mouse plasma (LC-MS/MS, population-based PK model); details: for In vivo drug free concentrations: SN38 after irinotecan 50 mg/kg
Description: The samples were collected at 5, 15, 40 min, and 1, 2, 4, 6, 8 and 24 h.
Whole blood was mixed 1:5 with PBS and centrifuged at 1500×g for 3 min at 4 °C, and the plasma was extracted and frozen at –80 °C.
Using this PK model, a time course of free plasma concentrations of both drugs was simulated (Table 1).
Acidified acetonitrile ([…]) was added with the internal standard, followed by centrifugation at 3000 rpm for 10 min. Supernatant ([…]) was then removed to a clean plate and dried under nitrogen. […]
Supplementary Method 8. Pharmacokinetic models parameters used for simulations
AZD156 PK model and PK parameters used for simulations

CCc1c2c(nc3ccc(O)cc13)-c1cc3c(c(=O)n1C2)COC(=O)[C@]3(O)CC [SN38]
spheroid viability (SW620 spheroids; Static plate format, CellTiterGlo, replicates (Fig 2d raw data), unit not given): 36.02 and 31.7 and 39.52 | reduction in spheroid viability (SW620 spheroids; static, continuous exposure): ~ 60% | change in γH2AX compared to the control group (γH2AX): did not observe a significant change | In vivo drug free concentrations ([1]; mouse plasma, time 1 h): 5.5 nM | In vivo drug free concentrations ([1]; mouse plasma, time 2 h): 4.7 nM | In vivo drug free concentrations ([1]; mouse plasma, time 3 h): 4.4 nM | In vivo drug free concentrations ([1]; mouse plasma, time 4 h): 4.1 nM | In vivo drug free concentrations ([1]; mouse plasma, time 5 h): 3.6 nM | In vivo drug free concentrations ([1]; mouse plasma, time 6 h): 3.1 nM | In vivo drug free concentrations ([1]; mouse plasma, time 7 h): 2.8 nM | In vivo drug free concentrations ([1]; mouse plasma, time 8 h): 2.4 nM | In vivo drug free concentrations ([1]; mouse plasma, time 9 h): 2.1 nM | In vivo drug free concentrations ([1]; mouse plasma, time 10 h): 1.9 nM | In vivo drug free concentrations ([1]; mouse plasma, time 11 h): 1.7 nM | In vivo drug free concentrations ([1]; mouse plasma, time 12 h): 1.6 nM | In vivo drug free concentrations ([1]; mouse plasma, time 13 h): 1.5 nM | In vivo drug free concentrations ([1]; mouse plasma, time 14 h): 1.4 nM | In vivo drug free concentrations ([1]; mouse plasma, time 15 h): 1.2 nM | In vivo drug free concentrations ([1]; mouse plasma, time 16 h): 1.1 nM | In vivo drug free concentrations ([1]; mouse plasma, time 17 h): 1.1 nM | In vivo drug free concentrations ([1]; mouse plasma, time 18 h): 0.9 nM | In vivo drug free concentrations ([1]; mouse plasma, time 19 h): 0.9 nM | In vivo drug free concentrations ([1]; mouse plasma, time 20 h): 0.8 nM | In vivo drug free concentrations ([1]; mouse plasma, time 21 h): 0.7 nM | In vivo drug free concentrations ([1]; mouse plasma, time 22 h): 0.7 nM | In vivo drug free concentrations ([1]; mouse plasma, time 23 h): 0.6 nM | In vivo drug free concentrations ([1]; mouse plasma, time 24 h): 0.6 nM | in vivo average measured concentration ([1]; mouse plasma, between 2-4h from treatment onset): 4.36 nM | Cmax ([1]; read-out: maximum mouse plasma concentration (Cmax), 50 mg/kg irinotecan (SN38), 10 mg/kg AZD0156): 5.5 nM
